Values quoted from earlier work, collected in article PMC8513935.

Key:
[1] = experimental, compiled by the authors from the literature (the ESI cites the sources)
[2] = derived by the authors as gas->solvent minus gas->water (a hypothetical dry solvent; the ESI), not a two-phase measurement
[3] = log P octanol/water from commercial databases, averaged (the ESI); conditions: Octanol (wet), 25 C

Q: For `Cc1ccc(O)cc1`, which log K of transfer, gas to solvent ([1]; 1,2-Dichloroethane, 25 C) is on record?
A: 5.68 log10 K

Q: What about the log K of transfer, gas to solvent ([1]; Benzene, 25 C) of the same molecule?
A: 5.39 log10 K

Q: What about the log K of transfer, gas to solvent ([1]; CCl4, 25 C) of the same molecule?
A: 4.72 log10 K

Q: What about the log K of transfer, gas to solvent ([1]; Chlorobenzene, 25 C) of the same molecule?
A: 5.3 log10 K

Q: What about the log K of transfer, gas to solvent ([1]; Chloroform, 25 C) of the same molecule?
A: 5.56 log10 K

Q: And the log K of transfer, gas to solvent ([1]; Cyclohexane, 25 C)?
A: 4.36 log10 K

Q: And the log K of transfer, gas to solvent ([1]; Dichloromethane, 25 C)?
A: 5.65 log10 K

Q: What about the log K of transfer, gas to solvent ([1]; Hexadecane, 25 C) of the same molecule?
A: 4.31 log10 K

Q: And the log K of transfer, gas to solvent ([1]; Hexane, 25 C)?
A: 4.16 log10 K

Q: And the log K of transfer, gas to solvent ([1]; Perfluoroalkane, 25 C)?
A: 2.67 log10 K

Q: What about the log K of transfer, gas to solvent ([1]; Water, 25 C) of the same molecule?
A: 4.5 log10 K

Q: What about the log K of transfer, water to solvent ([2]; 1,2-Dichloroethane, 25 C) of the same molecule?
A: 1.18 log10 K

Q: And the log K of transfer, water to solvent ([2]; Benzene, 25 C)?
A: 0.89 log10 K

Q: What about the log K of transfer, water to solvent ([2]; CCl4, 25 C) of the same molecule?
A: 0.22 log10 K

Q: And the log K of transfer, water to solvent ([2]; Chlorobenzene, 25 C)?
A: 0.8 log10 K

Q: What about the log K of transfer, water to solvent ([2]; Chloroform, 25 C) of the same molecule?
A: 1.06 log10 K

Q: What about the log K of transfer, water to solvent ([2]; Cyclohexane, 25 C) of the same molecule?
A: -0.14 log10 K

Q: What about the log K of transfer, water to solvent ([2]; Dichloromethane, 25 C) of the same molecule?
A: 1.15 log10 K

Q: And the log K of transfer, water to solvent ([2]; Hexadecane, 25 C)?
A: -0.188 log10 K

Q: And the log K of transfer, water to solvent ([2]; Hexane, 25 C)?
A: -0.34 log10 K

Q: And the log K of transfer, water to solvent ([2]; Perfluoroalkane, 25 C)?
A: -1.83 log10 K

Q: And the log K of transfer, water to solvent [3]?
A: 1.97 log10 K

Q: What does the source list for `CCCC(=O)CCC`?
A: log K of transfer, gas to solvent ([1]; Di-n-butyl ether, 25 C): 4.12 log10 K; log K of transfer, gas to solvent ([1]; Hexadecane, 25 C): 3.7 log10 K; log K of transfer, gas to solvent ([1]; Methanol, 25 C): 4.23 log10 K; log K of transfer, gas to solvent ([1]; Water, 25 C): 2.25 log10 K; log K of transfer, water to solvent ([2]; Di-n-butyl ether, 25 C): 1.87 log10 K; log K of transfer, water to solvent ([2]; Hexadecane, 25 C): 1.45 log10 K; log K of transfer, water to solvent ([2]; Methanol, 25 C): 1.98 log10 K; log K of transfer, water to solvent [3]: 2.04 log10 K

Q: For `C1CCCC1`, which log K of transfer, gas to solvent ([1]; Ethanol, 25 C) is on record?
A: 2.04 log10 K

Q: What about the log K of transfer, gas to solvent ([1]; Heptan-1-ol, 25 C) of the same molecule?
A: 2.27 log10 K

Q: And the log K of transfer, gas to solvent ([1]; Hexadecane, 25 C)?
A: 2.48 log10 K

Q: And the log K of transfer, gas to solvent ([1]; Hexane, 25 C)?
A: 2.71 log10 K

Q: What about the log K of transfer, gas to solvent ([1]; Methanol, 25 C) of the same molecule?
A: 1.92 log10 K

Q: And the log K of transfer, gas to solvent ([1]; Propan-1-ol, 25 C)?
A: 2.12 log10 K

Q: What about the log K of transfer, gas to solvent ([1]; Propan-2-ol, 25 C) of the same molecule?
A: 2.12 log10 K

Q: What about the log K of transfer, gas to solvent ([1]; Water, 25 C) of the same molecule?
A: -0.88 log10 K

Q: And the log K of transfer, water to solvent ([2]; Ethanol, 25 C)?
A: 2.92 log10 K

Q: And the log K of transfer, water to solvent ([2]; Heptan-1-ol, 25 C)?
A: 3.15 log10 K

Q: And the log K of transfer, water to solvent ([2]; Hexadecane, 25 C)?
A: 3.36 log10 K

Q: What about the log K of transfer, water to solvent ([2]; Hexane, 25 C) of the same molecule?
A: 3.59 log10 K

Q: And the log K of transfer, water to solvent ([2]; Methanol, 25 C)?
A: 2.8 log10 K

Q: What about the log K of transfer, water to solvent ([2]; Propan-1-ol, 25 C) of the same molecule?
A: 3 log10 K

Q: What about the log K of transfer, water to solvent ([2]; Propan-2-ol, 25 C) of the same molecule?
A: 3 log10 K

Q: What about the log K of transfer, water to solvent [3] of the same molecule?
A: 3 log10 K

Q: With `CCC(CC)(CC)CC` as the molecule, how does the log K of transfer, gas to solvent ([1]; Hexadecane, 25 C) read?
A: 4.01 log10 K

Q: What about the log K of transfer, gas to solvent ([1]; Hexane, 25 C) of the same molecule?
A: 4.31 log10 K

Q: What about the log K of transfer, gas to solvent ([1]; Methanol, 25 C) of the same molecule?
A: 3.15 log10 K

Q: And the log K of transfer, gas to solvent ([1]; Water, 25 C)?
A: -1.63 log10 K

Q: And the log K of transfer, water to solvent ([2]; Hexadecane, 25 C)?
A: 5.64 log10 K

Q: And the log K of transfer, water to solvent ([2]; Hexane, 25 C)?
A: 5.94 log10 K

Q: And the log K of transfer, water to solvent ([2]; Methanol, 25 C)?
A: 4.78 log10 K

Q: What about the log K of transfer, water to solvent [3] of the same molecule?
A: 5.19 log10 K

Q: For `c1ccc2c(c1)-c1cccc3cccc-2c13`, which log K of transfer, gas to solvent ([1]; 1,2-Dichloroethane, 25 C) is on record?
A: 9.52 log10 K

Q: What about the log K of transfer, gas to solvent ([1]; 2-Methylpropan-1-ol, 25 C) of the same molecule?
A: 8.1 log10 K

Q: What about the log K of transfer, gas to solvent ([1]; 3-Methylbutan-1-ol, 25 C) of the same molecule?
A: 8.25 log10 K

Q: And the log K of transfer, gas to solvent ([1]; Acetonitrile, 25 C)?
A: 8.75 log10 K

Q: What about the log K of transfer, gas to solvent ([1]; Benzene, 25 C) of the same molecule?
A: 9.46 log10 K

Q: And the log K of transfer, gas to solvent ([1]; Butan-1-ol, 25 C)?
A: 8.4 log10 K

Q: What about the log K of transfer, gas to solvent ([1]; Butan-2-ol, 25 C) of the same molecule?
A: 8.25 log10 K

Q: And the log K of transfer, gas to solvent ([1]; CCl4, 25 C)?
A: 9.27 log10 K

Q: And the log K of transfer, gas to solvent ([1]; Chloroform, 25 C)?
A: 9.56 log10 K

Q: What about the log K of transfer, gas to solvent ([1]; Cyclohexane, 25 C) of the same molecule?
A: 8.51 log10 K

Q: What about the log K of transfer, gas to solvent ([1]; Di-n-butyl ether, 25 C) of the same molecule?
A: 8.84 log10 K

Q: And the log K of transfer, gas to solvent ([1]; Diethyl Ether, 25 C)?
A: 9.08 log10 K

Q: And the log K of transfer, gas to solvent ([1]; Ethanol, 25 C)?
A: 8.33 log10 K

Q: And the log K of transfer, gas to solvent ([1]; Heptan-1-ol, 25 C)?
A: 8.72 log10 K

Q: And the log K of transfer, gas to solvent ([1]; Hexadecane, 25 C)?
A: 8.82 log10 K

Q: What about the log K of transfer, gas to solvent ([1]; Hexan-1-ol, 25 C) of the same molecule?
A: 8.56 log10 K

Q: What about the log K of transfer, gas to solvent ([1]; Hexane, 25 C) of the same molecule?
A: 8.41 log10 K

Q: And the log K of transfer, gas to solvent ([1]; Methanol, 25 C)?
A: 8.18 log10 K

Q: And the log K of transfer, gas to solvent ([1]; Octan-1-ol, 25 C)?
A: 8.61 log10 K

Q: What about the log K of transfer, gas to solvent ([1]; Pentan-1-ol, 25 C) of the same molecule?
A: 8.49 log10 K

Q: And the log K of transfer, gas to solvent ([1]; Propan-1-ol, 25 C)?
A: 8.31 log10 K

Q: And the log K of transfer, gas to solvent ([1]; Propan-2-ol, 25 C)?
A: 8.15 log10 K

Q: What about the log K of transfer, gas to solvent ([1]; Toluene, 25 C) of the same molecule?
A: 9.38 log10 K

Q: What about the log K of transfer, gas to solvent ([1]; Water, 25 C) of the same molecule?
A: 3.44 log10 K

Q: And the log K of transfer, water to solvent ([2]; 1,2-Dichloroethane, 25 C)?
A: 6.08 log10 K

Q: What about the log K of transfer, water to solvent ([2]; 2-Methylpropan-1-ol, 25 C) of the same molecule?
A: 4.66 log10 K

Q: And the log K of transfer, water to solvent ([2]; 3-Methylbutan-1-ol, 25 C)?
A: 4.81 log10 K

Q: And the log K of transfer, water to solvent ([2]; Acetonitrile, 25 C)?
A: 5.31 log10 K

Q: What about the log K of transfer, water to solvent ([2]; Benzene, 25 C) of the same molecule?
A: 6.02 log10 K

Q: And the log K of transfer, water to solvent ([2]; Butan-1-ol, 25 C)?
A: 4.96 log10 K

Q: What about the log K of transfer, water to solvent ([2]; Butan-2-ol, 25 C) of the same molecule?
A: 4.81 log10 K

Q: And the log K of transfer, water to solvent ([2]; CCl4, 25 C)?
A: 5.83 log10 K

Q: And the log K of transfer, water to solvent ([2]; Chloroform, 25 C)?
A: 6.12 log10 K

Q: And the log K of transfer, water to solvent ([2]; Cyclohexane, 25 C)?
A: 5.07 log10 K

Q: And the log K of transfer, water to solvent ([2]; Di-n-butyl ether, 25 C)?
A: 5.41 log10 K

Q: What about the log K of transfer, water to solvent ([2]; Diethyl Ether, 25 C) of the same molecule?
A: 5.64 log10 K

Q: What about the log K of transfer, water to solvent ([2]; Ethanol, 25 C) of the same molecule?
A: 4.89 log10 K

Q: What about the log K of transfer, water to solvent ([2]; Heptan-1-ol, 25 C) of the same molecule?
A: 5.28 log10 K

Q: What about the log K of transfer, water to solvent ([2]; Hexadecane, 25 C) of the same molecule?
A: 5.38 log10 K

Q: And the log K of transfer, water to solvent ([2]; Hexan-1-ol, 25 C)?
A: 5.13 log10 K

Q: What about the log K of transfer, water to solvent ([2]; Hexane, 25 C) of the same molecule?
A: 4.98 log10 K

Q: And the log K of transfer, water to solvent ([2]; Methanol, 25 C)?
A: 4.74 log10 K

Q: And the log K of transfer, water to solvent ([2]; Octan-1-ol(dry), 25 C)?
A: 5.17 log10 K

Q: And the log K of transfer, water to solvent ([2]; Pentan-1-ol, 25 C)?
A: 5.05 log10 K

Q: And the log K of transfer, water to solvent ([2]; Propan-1-ol, 25 C)?
A: 4.87 log10 K

Q: And the log K of transfer, water to solvent ([2]; Propan-2-ol, 25 C)?
A: 4.72 log10 K

Q: What about the log K of transfer, water to solvent ([2]; Toluene, 25 C) of the same molecule?
A: 5.94 log10 K

Q: And the log K of transfer, water to solvent [3]?
A: 5.16 log10 K
